Literature values, collected in US20100056547A1, “OPHTHALMIC COMPOSITIONS COMPRISING dDC” (ALLERGAN, INC., priority 2005, published 2010).

Legend:
adenoviral strains = details: for inhibition of adenoviral strains: Kaneko et al., J. Jpn. Ophthalmol. Soc. 107:196-201 (2003)
viral conjunctivitis = details: topical ophthalmic administration; Gordon et al., Cornea 15(5): 546, 1996

SMILES: Nc1ccn(C[C@@H](CO)OCP(=O)(O)O)c(=O)n1 [HPMPC]
- inhibition of adenoviral strains (adenoviral strains): inhibited adenoviral strains

SMILES: Nc1ccn([C@H]2CC[C@@H](CO)O2)c(=O)n1 [dDC, 2′,3′-Dideoxycytidine]
- inhibition of adenoviral strains (adenoviral strains): inhibited adenoviral strains

SMILES: CCCCCCCCCCCCCCCCCCCCCCOCC(C)(COCCCCCCCCCCCCCCCCCCCCCC)CO[C@]1(C(=O)O)C[C@H](OS(=O)(=O)O)[C@@H](NC(C)=O)[C@H]([C@H](OS(=O)(=O)O)[C@@H](COS(=O)(=O)O)OS(=O)(=O)O)O1 [NMSO3]
- inhibition of adenoviral strains (adenoviral strains): inhibited adenoviral strains
- EC50 values (ranking among NMSO3, HPMPC, dDC) (adenoviral strains; adenoviral strains, Kaneko et al. 2003): lowest

SMILES: Nc1ccn(C[C@@H](CO)OCP(=O)(O)O)c(=O)n1 [cidofavir]
- effectiveness in treating viral conjunctivitis (viral conjunctivitis): effective
